Test system: HER2 phosphorylation
Conditions: HER2-driven cell lines, 2 hours, normoxic, immunoblot

CN(C)CC=CC(=O)Nc1cc2c(Nc3ccc(F)c(Cl)c3)ncnc2cc1O[C@H]1CCOC1 [afatinib, N-[4-[(3-Chloro-4-fluorophenyl)amino]-7-[[(3S)-tetrahydro-3-furanyl]oxy]-6-quinazolinyl]-4(dimethylamino)-2-butenamide]
Concentration inhibiting HER2 phosphorylation (pHER2): 100 nM
